{"source": "patent US11040947B2", "about": "“Substituted quinazolines as matrix metalloproteinase-9 hemopexin domain inhibitors” (The Research Foundation for The State University of New York, priority 2017, dated 2021)", "key": {"[1]": {"system": "proMMP9-mediated migration of COS-1 cells", "experiment": "two-dimensional collagen dot migration assay, COS-1 cells overexpressing proMMP-9", "type": "cell-based", "conditions": "50 μM", "protocol": "This assay was initially used to test the efficacy of analogs at a single concentration, 50 μM.\nCells were mixed with type I collagen solution with or without compound, dotted onto a 96-well plate, and allowed to migrate for 18 hours. They were then fixed, stained and scored for extent of migration."}, "[2]": {"system": "proMMP-9/MMP-2PEX chimera", "experiment": "tryptophan fluorescence titration with chimera", "type": "binding", "experimental": "A blue shift in proMMP-9 tryptophan fluorescence was monitored to determine the binding affinity of all compounds. Binding of a test compound to MMP-9 was assayed by observing the change of tryptophan emission upon binding. Purified recombinant MMP-9 (50 nmol/L) or MMP-9/MMP-2PEX (50 nmol/L) was diluted in buffer (50 mmol/L Tris-HCl, 60 mmol/L KCl, and 0.05% Tween 20, pH 7.4) in the presence or absence of the test compound. As a control for protein stability and loss, an analogous buffer solution was added to the protein. The protein sample was excited at 280 nm and emission scans were collected from 290 to 400 nm, using slit widths of 0.3 nm on a QM 4/200SE spectrofluorimeter with double excitation and emission monochromators. Three emission scans were collected and averaged at each concentration. The Kd was determined using the Prism software package (GraphPad V5) to fit the data to Equation (Δ). λmax=(λmax^∞×[2])/(Kd+[2]) (A) in which λmax is the wavelength at which maximal fluorescence of the protein was observed.\nA chimera of proMMP-9 and MMP-2 in which the MMP-9 PEX domain was replaced by that of MMP-2, (proMMP-9/MMP-2PEX) was tested for analog binding."}, "proMMP-9": {"molecular_target": "T1, proMMP-9 (Homo sapiens, UniProt P14780)", "T1 construct": "Purified recombinant MMP-9 (50 nmol/L) or MMP-9/MMP-2PEX (50 nmol/L) was diluted in buffer", "T1 sequence (P14780 20-707 limits assumed)": "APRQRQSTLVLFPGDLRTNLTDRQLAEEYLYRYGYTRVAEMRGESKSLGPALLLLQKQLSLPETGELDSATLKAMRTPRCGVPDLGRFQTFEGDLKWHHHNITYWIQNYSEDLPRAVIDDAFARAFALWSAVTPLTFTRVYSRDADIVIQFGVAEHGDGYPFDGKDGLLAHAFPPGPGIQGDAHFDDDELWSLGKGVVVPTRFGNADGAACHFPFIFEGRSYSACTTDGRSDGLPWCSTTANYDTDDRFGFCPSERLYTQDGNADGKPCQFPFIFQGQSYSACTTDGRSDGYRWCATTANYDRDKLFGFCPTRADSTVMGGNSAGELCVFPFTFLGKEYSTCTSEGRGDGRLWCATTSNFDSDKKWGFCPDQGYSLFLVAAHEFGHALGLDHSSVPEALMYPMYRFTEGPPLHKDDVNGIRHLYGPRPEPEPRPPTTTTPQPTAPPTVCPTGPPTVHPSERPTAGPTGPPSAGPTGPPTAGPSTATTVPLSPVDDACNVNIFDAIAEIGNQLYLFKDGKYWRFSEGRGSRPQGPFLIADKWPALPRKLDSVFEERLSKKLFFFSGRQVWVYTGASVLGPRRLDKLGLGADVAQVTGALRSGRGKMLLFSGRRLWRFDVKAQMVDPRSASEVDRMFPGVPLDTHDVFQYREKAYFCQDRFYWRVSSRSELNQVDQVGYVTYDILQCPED", "experiment": "saturated transfer difference (STD) NMR, proMMP-9", "type": "binding", "conditions": "saturation of 1.12 ppm resonance", "experimental": "As an additional test of binding selectivity, saturated transfer difference (STD) NMR was performed with purified recombinant proMMP-2 and proMMP-9 protein. ProMMP-2 and proMMP-9 are highly similar in structure and function, belonging to the same subfamily of MMPs known as the type IV collagenases and/or gelatinases. Thus proMMP-2 constitutes the best control for testing the selectivity of the PEX-9 inhibitor. Selective saturation of the 1.12 ppm resonance (proMMP-2 and proMMP-9) was used for STD NMR spectra. […] Thus, binding specificity is maintained upon increasing binding affinity."}, "[3]": {"system": "proMMP9-mediated migration of COS-1 cells", "experiment": "two-dimensional dot migration assay, COS-1 cells stably expressing proMMP-9", "type": "cell-based", "experimental": "To test whether compound 3c is specific for inhibiting only proMMP9-mediated migration, a two-dimensional dot migration assay was performed using COS-1 cells engineered to stably express vector control pQCXIP, proMMP-2, proMMP-9, or proMMP-14 cDNA vectors. An immunoblot was performed to confirm protein expression and proper localization of each MMP (MMP-2/-9 are secreted while MMP-14 is membrane bound)."}, "[4]": {"system": "COS-1 cells stably expressing vector control or proMMP-9", "experiment": "acute cytotoxicity in COS-1 cells", "type": "cell-based", "conditions": "50 μM, 24 hours, non-statistically significant", "experimental": "(§1) Compound 3c was evaluated for acute cytotoxicity. COS-1 cells stably expressing either vector control or proMMP-9 cDNA were treated with 50 μM 3c for 24 hours. As negative and positive controls, cells were treated with DMSO alone or 100 nM staurosporine (STS), an apoptosis inducer, respectively. […] A non-statistically significant 8% decrease in cell growth occurred after treatment with 50 μM of compound 3c. These experiments were repeated in endogenous MMP-9 expressing HT1080 fibrosarcoma cells, which were analyzed for chronic toxicity (cells were re-treated every three days for a total of nine days)."}, "[5]": {"system": "HT1080 fibrosarcoma cells", "experiment": "chronic toxicity in HT1080 cells", "type": "cell-based, Human", "conditions": "100 μM, HT1080 cells re-treated every three days for nine days", "experimental": "as §1"}, "[6]": {"molecular_target": "T2, MMP-9 association with CD44 and EGFR (Homo sapiens, UniProt P14780)", "T2 construct": "expressed in transfected cells; host or cells: HT1080 human fibrosarcoma cells (MMP-9 transfected; CD44 and EGFR endogenous)", "T2 sequence (P14780 94-707)": "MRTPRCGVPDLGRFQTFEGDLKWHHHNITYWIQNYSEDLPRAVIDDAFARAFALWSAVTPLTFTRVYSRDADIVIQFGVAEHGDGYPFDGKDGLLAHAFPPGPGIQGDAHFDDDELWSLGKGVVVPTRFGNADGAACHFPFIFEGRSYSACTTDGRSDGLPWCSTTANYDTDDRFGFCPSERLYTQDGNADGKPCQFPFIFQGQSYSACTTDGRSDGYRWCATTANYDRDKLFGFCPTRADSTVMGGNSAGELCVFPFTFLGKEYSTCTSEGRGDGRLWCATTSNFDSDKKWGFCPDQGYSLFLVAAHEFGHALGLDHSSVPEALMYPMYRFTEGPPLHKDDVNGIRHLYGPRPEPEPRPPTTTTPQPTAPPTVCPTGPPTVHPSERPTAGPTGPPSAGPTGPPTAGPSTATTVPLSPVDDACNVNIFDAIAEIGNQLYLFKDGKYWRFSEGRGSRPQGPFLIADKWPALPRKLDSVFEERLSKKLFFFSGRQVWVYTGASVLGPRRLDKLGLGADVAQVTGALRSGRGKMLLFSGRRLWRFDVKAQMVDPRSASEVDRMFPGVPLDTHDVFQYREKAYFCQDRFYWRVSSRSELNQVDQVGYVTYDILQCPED", "experiment": "co-immunoprecipitation of endogenous CD44 and EGFR with MMP-9 in HT1080 cells", "type": "cell-based", "conditions": "50 μM overnight"}, "[7]": {"system": "EGFR^Tyr1068, AKT^Ser473, Erk1/2^Thr202/Tyr204 phosphorylation", "experiment": "phosphorylation of EGFR and downstream targets in HT1080 cells", "type": "cell-based, Human", "conditions": "50 μM overnight"}, "[8]": {"system": "Src^Tyr418, FAK^Tyr576/577, PAX^Tyr118 phosphorylation", "experiment": "phosphorylation of Src and downstream targets in HT1080 cells", "type": "cell-based, Human", "conditions": "50 μM", "experimental": "HT1080 cells transiently co-transfected with tagged MMP-9 cDNAs were prepared as described above."}, "[9]": {"system": "FAK and PAX adhesion junctions in HT1080 cells", "experiment": "focal adhesion complexes, immunofluorescence in HT1080 cells", "type": "cell-based, Human", "conditions": "50 μM overnight"}, "[10]": {"system": "EGFR-CD44 and EGFR-β1 integrin interaction", "experiment": "EGFR co-IP assay with CD44 and β1 integrin in HT1080 cells", "type": "cell-based, Human", "conditions": "50 μM", "experimental": "HT1080 cells were treated with 50 μM 3c, 1a, 1f or DMSO alone. Cell lysates were collected and analyzed by a co-IP assay in which endogenous EGFR was captured with an anti-EGFR antibody and served as an input control. CD44 and β1 integrin were individually probed on the immunoblot."}, "HT1080 cells [11]": {"system": "HT1080 cells", "experiment": "cell adhesion to collagen or fibronectin coated plate", "type": "cell-based, Human", "conditions": "37° C. 30 min", "experimental": "A 96-well plate was coated with a thin layer of either collagen or fibronectin (5 μg/ml in PBS) substrate before use. HT1080 cells were then seeded onto wells and incubated at 37° C. for 30 min in the presence of various inhibitors. Wells were washed and cells were fixed in 4% paraformaldehyde and stained with DAPI. Images of each 96-well were microscopically captured and counted for the number of cells still adherent to the coated surface using automated computer software."}, "HT1080 cells [12]": {"system": "HT1080 cells", "experiment": "chorioallantoic membrane (CAM) assay, angiogenesis", "type": "in vivo, chicken embryo", "conditions": "100 μM stock solution (final estimated 0.5 μM), 4-day incubation, vs DMSO and 1f", "experimental": "A CAM assay was carried out to evaluate angiogenic and invasive potential of HT1080 cells after treatment with 3c. […] After a 4-day incubation, neovascularization was imaged and quantified."}, "[13]": {"system": "HT1080 cells stably expressing GFP", "experiment": "chorioallantoic membrane (CAM) assay, invasion", "type": "in vivo, chicken embryo", "conditions": "100 μM stock solution (final estimated 0.5 μM), vs DMSO or 1f", "experimental": "HT1080 cells stably expressing GFP were mixed with a type I collagen solution (3 mg/mL) and seeded atop the CAM to ensure the cells localized to a specific area. […] The invasion of cancer cells through the epithelium and basement membrane of the upper CAM into connecting tissue was examined by hematoxylin and eosin staining in addition to fluorescence microscopy for GFP^+ cells."}}}
{"smiles": "O=C(CCCSc1nc2c(c(=O)[nH]1)CCCC2)Nc1ccc(F)cc1", "note": "[Compound 3c, N-(4-Fluorophenyl)-4-(4-oxo-3,4,5,6,7,8-hexahydroquinazolin-2-ylthio)butanamide]", "values": [{"measurement": "effectiveness among the tested compounds in migration assay", "setting": "[1]", "result": "most effective"}, {"measurement": "inhibition at 50 µM", "setting": "[1]; Chlorocebus aethiops, 18 hours", "result": "90 ± 2", "unit": "%"}, {"measurement": "shift in fluorescence upon titration with chimera", "setting": "[2]", "result": "no shift in fluorescence was observed"}, {"measurement": "STD NMR peaks in presence of proMMP-9", "setting": "proMMP-9", "result": "STD peaks were observed"}, {"measurement": "effectiveness at inhibiting migration compared with 1a", "setting": "[3]", "result": "significantly more effective at inhibiting migration"}, {"measurement": "inhibition of proMMP-9-mediated migration", "setting": "[3]", "result": "only inhibited proMMP9-mediated migration"}, {"measurement": "decrease in cell growth", "setting": "[4]", "result": 8, "unit": "%"}, {"measurement": "cell death, chronic toxicity", "setting": "[5]", "result": "No cell death was observed"}, {"measurement": "endogenous CD44 and EGFR co-immunoprecipitation", "setting": "[6]", "result": "reduced endogenous CD44 and EGFR co-immunoprecipitation"}, {"measurement": "phosphorylation of EGFR^Tyr1068 and downstream targets AKT^Ser473 and Erk1/2^Thr202/Tyr204", "setting": "[7]", "result": "reduced phosphorylation"}, {"measurement": "Src^Tyr418 phosphorylation and phosphorylation of FAK^Tyr576/577 and PAX^Tyr118", "setting": "[8]", "result": "reduced Src^Tyr418 phosphorylation"}, {"measurement": "formation of FAK and PAX adhesion junctions", "setting": "[9]", "result": "A decrease in the formation of FAK and PAX adhesion junctions"}, {"measurement": "interaction between EGFR-CD44 and EGFR-β1 integrin", "setting": "[10]", "result": "Decreased interaction between EGFR-CD44 and EGFR-β1 integrin"}, {"measurement": "cellular adhesion", "setting": "HT1080 cells [11]", "result": "inhibited cellular adhesion"}, {"measurement": "angiogenic potential of HT1080 cells (neovascularization)", "setting": "HT1080 cells [12]", "result": "significantly reduced the angiogenic potential of HT1080 cells"}, {"measurement": "invasion of CAM tissue", "setting": "[13]", "result": "reduced invasion of CAM tissue"}]}
